According to patent publication US20160362402A1, “NOVEL COMPOUNDS HAVING ANTI-ALLODYNIC AND ANTIHYPERALGESIC ACTIVITY” (CONSORZIO INTERUNIVERSITARIO NAZIONALE PER LA SCIENZA E …, priority 2014, published 2016):

How the values were obtained:
[1] = system: primary rat astrocytes; assay: Superoxide anion production in primary rat astrocytes incubated with oxaliplatin; format: cell-based; conditions: oxaliplatin 100 μM alone, 4 hours; control 16.9±0.3 μM
Method: FIG. 1. Evaluation of the antioxidant profile of ADM-12 in a rat primary astrocytes cell culture *P<0.01 with respect to the untreated control and ̂P<0.01 with respect to astrocytes treated with oxaliplatin.
The antioxidant profile of ADM-12 also emerges in a cell culture of primary rat astrocytes (FIG. 1). Incubation of cells with the chemotherapic agent oxaliplatin 100 μM induces a significant production of the superoxide anion, which after 4 hours increases from 16.9±0.3 μM of the control to 31.1±2.1 μM; co-treatment with ADM-12 100 μM reduces the production of oxygen free radicals to 21.0±0.4 μM.

[2] = Compatibility with oxaliplatin in physiological solution (1H NMR, mass spectra); format: physicochemical

Compound: O=C1[O][Pt]2([NH][C@@H]3CCCC[C@H]3[NH]2)[O]C1=O [oxaliplatin]
- production of the superoxide anion [1]: 31.1 ± 2.1 µM
- structural integrity when mixed ([2]; ADM-12 and oxaliplatin mixed in physiological solution): remain structurally unaltered
- signal variations at 1H NMR and in mass spectra ([2]; ADM-12 with oxaliplatin in physiological solution, 24 and 48 hours, room temperature and 37° C.): does not show signal variations
